Earlier results in patent US20060089285A1, “Stabilized chlorine bleach in alkaline detergent composition and method of making and using the same” (priority 2004, published 2006).

Legend:
[1] = in an alkaline liquid detergent; prior art statement
[2] = OCl-/HOCl equilibrium, ambient temperature

Row | SMILES | shelf stability [1] | pKa [2]
1 | OCl [sodium hypochlorite bleach, Sodium hypochlorite] | about 3 months | 
2 | OCl [HOCl] |  | 7.5
